Data as given in US12662489B2 (Sitryx Therapeutics Limited, priority 2023, dated 2026).

What was measured:
[1] = target: T1, MTHFD1 recombinant human enzyme (Homo sapiens, UniProt P11586); assay: MTHFD1 inhibition assay (NAD(P)H-Glo luminescence); conditions: MTHFD1 IC50, recombinant human enzyme 200 nM, NADP, band
T1 sequence (P11586 2-291 limits assumed): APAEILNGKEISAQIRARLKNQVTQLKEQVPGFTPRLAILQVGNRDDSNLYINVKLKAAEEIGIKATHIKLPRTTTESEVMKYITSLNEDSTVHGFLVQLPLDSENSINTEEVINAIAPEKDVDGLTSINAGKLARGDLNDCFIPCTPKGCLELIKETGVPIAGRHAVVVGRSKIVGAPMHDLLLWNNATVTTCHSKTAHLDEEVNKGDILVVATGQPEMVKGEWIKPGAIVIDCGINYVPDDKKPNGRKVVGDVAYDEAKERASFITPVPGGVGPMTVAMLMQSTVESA

[2] = target: T2, MTHFD2 recombinant human enzyme (Homo sapiens, UniProt P13995); assay: MTHFD2 inhibition assay (NAD(P)H-Glo luminescence); conditions: for MTHFD1/MTHFD2 IC50 ratio: selectivity of MTHFD2 inhibition over MTHFD1, band
T2 sequence (P13995 36-350): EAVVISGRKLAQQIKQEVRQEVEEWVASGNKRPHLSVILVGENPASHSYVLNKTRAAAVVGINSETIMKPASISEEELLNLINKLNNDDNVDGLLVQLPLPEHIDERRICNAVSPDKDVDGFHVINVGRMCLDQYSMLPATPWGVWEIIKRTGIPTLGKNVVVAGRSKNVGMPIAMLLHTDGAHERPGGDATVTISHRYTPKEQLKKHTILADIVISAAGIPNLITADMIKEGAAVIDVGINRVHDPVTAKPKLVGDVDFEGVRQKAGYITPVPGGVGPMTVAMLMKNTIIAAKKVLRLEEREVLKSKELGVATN

IC50 [1] [nM]	IC50 [2] [nM]	MTHFD1/MTHFD2 IC50 ratio [2]	SMILES
10 to 100	10 to 100	F (<3)	COC[C@H]1CN(c2ccc3c4c(c(=O)oc3c2C)CN(C(=O)c2ccc(C(=O)NS(=O)(=O)C3(C)CC3)c(OC3CCCC3)c2F)CC4)CCN1C [Example 9, (R)-2-(cyclopentyloxy)-3-fluoro-4-(8-(3-(methoxymethyl)-4-methylpiperazin-1-yl)-7-methyl-5-oxo-1,3,4,5-tetrahydro-2H-chromeno[3,4-c]pyridine-3-carbonyl)-N-((1-methylcyclopropyl)sulfonyl)benzamide]
1 to 10	1 to 10	G (^ 3 to 9.0)	COC[C@H]1CN(c2cc(C)c3c4c(c(=O)oc3c2C)CN(C(=O)c2ccc(C(=O)NS(=O)(=O)C3(C)CC3)c(N3CCC3)c2)CC4)CCN1C [Example 91, (R)-2-(azetidin-1-yl)-4-(8-(3-(methoxymethyl)-4-methylpiperazin-1-yl)-7,10-dimethyl-5-oxo-1,3,4,5-tetrahydro-2H-chromeno[3,4-c]pyridine-3-carbonyl)-N-((1-methylcyclopropyl)sulfonyl)benzamide]
100 to 1000	10 to 100	G (^ 3 to 9.0)	COC[C@H]1CN(c2cc(C)c3c4c(c(=O)oc3c2C)CN(C(=O)c2cc(OC)c(C(=O)NS(=O)(=O)N(C)C)c(N3CCCC3)c2)CC4)CCN1C [Example 119, (R)-N-(N,N-dimethylsulfamoyl)-2-methoxy-4-(8-(3-(methoxymethyl)-4-methylpiperazin-1-yl)-7,10-dimethyl-5-oxo-1,3,4,5-tetrahydro-2H-chromeno[3,4-c]pyridine-3-carbonyl)-6-(pyrrolidin-1-yl)benzamide]
100 to 1000	10 to 100	–	COC[C@H]1CN(c2cc(C)c3c4c(c(=O)oc3c2C)CN(C(=O)c2cc(N(C)C)c(C(=O)NS(=O)(=O)N3CCC(C(F)(F)F)CC3)cc2F)CC4)CCN1C [Example 296, (R)-2-(dimethylamino)-5-fluoro-4-(8-(3-(methoxymethyl)-4-methylpiperazin-1-yl)-7,10-dimethyl-5-oxo-1,3,4,5-tetrahydro-2H-chromeno[3,4-c]pyridine-3-carbonyl)-N-((4-(trifluoromethyl)piperidin-1-yl)sulfonyl)benzamide]
100 to 1000	10 to 100	H (>9.0 to 30)	COC[C@H]1CN(c2cc(C)c3c4c(c(=O)oc3c2C)CN(C(=O)c2ccc(C(=O)NS(=O)(=O)N(C)C3CCCC3)c(OC)c2F)CC4)CCN1C [Example 238]
10 to 100	10 to 100	F (<3)	COC[C@H]1CN(c2cc(C)c3c4c(c(=O)oc3c2C)CN(C(=O)c2ccc(C(=O)NS(=O)(=O)N(C)C)c(N3CCC[C@H]3C)c2)CC4)CCN1C [Example 102, N-(N,N-dimethylsulfamoyl)-4-(8-((R)-3-(methoxymethyl)-4-methylpiperazin-1-yl)-7,10-dimethyl-5-oxo-1,3,4,5-tetrahydro-2H-chromeno[3,4-c]pyridine-3-carbonyl)-2-((R)-2-methylpyrrolidin-1-yl)benzamide]
100 to 1000	10 to 100	H (>9.0 to 30)	COC[C@H]1CN(c2cc(C)c3c4c(c(=O)oc3c2C)CN(C(=O)c2cc(OC3CCCC3)c(C(=O)NS(=O)(=O)N(C)C)c(N3CCCC3)c2)CC4)CCN1C [Example 127, (R)-2-(cyclopentyloxy)-N-(N,N-dimethylsulfamoyl)-4-(8-(3-(methoxymethyl)-4-methylpiperazin-1-yl)-7,10-dimethyl-5-oxo-1,3,4,5-tetrahydro-2H-chromeno[3,4-c]pyridine-3-carbonyl)-6-(pyrrolidin-1-yl)benzamide]

SMILES	IC50 [1] [nM]	IC50 [2] [nM]	MTHFD1/MTHFD2 IC50 ratio [2]
COC[C@@H]1CN(c2cc(C)c3c4c(c(=O)oc3c2C)CN(C(=O)c2ccc(C(=O)NS(=O)(=O)N3CCCC3)c(OC3CCC3)c2)CC4)CCN1C [Example 131, (S)-2-cyclobutoxy-4-(8-(3-(methoxymethyl)-4-methylpiperazin-1-yl)-7,10-dimethyl-5-oxo-1,3,4,5-tetrahydro-2H-chromeno[3,4-c]pyridine-3-carbonyl)-N-(pyrrolidin-1-ylsulfonyl)benzamide]	100 to 1000	10 to 100	G (^ 3 to 9.0)
